We go through 14 compounds from US20240383922A1, “KRAS Modulating Compounds” (Gilead Sciences, Inc., priority 2023, published 2024).

pEC50, pIC50: −log10 of the molar value. Where two headings read alike, the source gives them in different places.

The term pIC50 denotes −log10 of the IC50, conventionally taken in molar units. Usually pEC50 stands for −log10 of the EC50, conventionally taken in molar units.

Test [1] concerns the target GDP-loaded wild-type KRAS (WT) (Homo sapiens (Human), UniProt P01116). As to the kind of experiment: KRAS (GDP) biochemical TR-FRET probe displacement assay, WT KRAS. As to conditions: 2 hours. Format: binding. On the procedure: (§1) KRAS (GDP) Biochemical Assays:
(§2) Compounds were serially diluted (1:3) in DMSO. The LabCyte ECHO Acoustic dispenser was used to pre-spot the assay plates (384-well Non-Binding Surface plates, Corning, Catalog #3824) with 50 nL of compound. 5 μL of 2× enzyme concentration was added to the pre-spotted plates and incubated for 30 minutes before adding 5 μL of 2× concentration of Eu-streptavidin and Cy-5 labelled probe (10 μL final reaction volume). The plates were incubated at room temperature for 2 hours before measuring TR-FRET ratio (665 nm/615 nm) on the Envision multimode plate reader. The ratios were normalized to a positive (saturating concentration of known inhibitor) and negative (DMSO) control and plotted against the log of compound concentration.

For a further test, the target named is GDP-loaded KRAS-G12C (Homo sapiens (Human), UniProt P01116, G12C). In words: KRAS (GDP) biochemical TR-FRET probe displacement assay, KRAS-G12C. The class given is binding. As to conditions: 2 hours. On the procedure:
as §1, §2

For a further test, the target named is GDP-loaded KRAS-G12V (Homo sapiens (Human), UniProt P01116, G12V). In words: KRAS (GDP) biochemical TR-FRET probe displacement assay, KRAS-G12V. The class given is binding. As to conditions: 2 hours. As to the method:
as §1, §2

The next test addresses GDP-loaded KRAS-G12D (Homo sapiens (Human), UniProt P01116, G12D). As to the kind of experiment: KRAS (GDP) biochemical TR-FRET probe displacement assay, KRAS-G12D. The class given is binding. As to conditions: 2 hours. As to the method: as §1, §2
In general terms: Time-resolved FRET reads energy transfer from a long-lived donor to a nearby acceptor.

The test system of test [2] is cellular pERK in Kuramochi (WT KRAS) cell-line. As to the kind of experiment: Cell based pERK assay (HTRF), Kuramochi. As to conditions: Kuramochi (WT KRAS) cells, 2 hours incubation. The essentials: (§3)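 Following overnight attachment, cells received compound in a three-fold dilution series for 2 hours at 37 °C. Medium was then removed and combined lysis and phospho-ERK detection reagent was added for overnight incubation at room temperature before time-resolved FRET reading.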

The test system of test [3] is cellular pERK in MIA-PaCa-2 (KRAS-G12C) cell-line. In words: Cell based pERK assay (HTRF), MIA-PaCa-2. As to conditions: MIA-PaCa-2 (KRAS-G12C) cells, 2 hours incubation, read-out: MIAPaCa2 pERK EC50. The essentials: as §3
Test [4] has as its system cellular pERK in NCI-H441 (KRAS-G12V) cell-line. In words: Cell based pERK assay (HTRF), NCI-H441. As to conditions: NCI-H441 (KRAS-G12V) cells, 2 hours incubation. The essentials:
as §3

The subject of test [5] is cellular pERK in ASPC-1 (KRAS G12D) cell-line. In words: Cell based pERK assay (HTRF), ASPC-1. As to conditions: ASPC-1 (KRAS G12D) cells, 2 hours incubation. In outline: as §3

GDP-loaded KRAS-G12D, sequence (P01116-2 other isoform, or with tags, fused parts or gaps G12D): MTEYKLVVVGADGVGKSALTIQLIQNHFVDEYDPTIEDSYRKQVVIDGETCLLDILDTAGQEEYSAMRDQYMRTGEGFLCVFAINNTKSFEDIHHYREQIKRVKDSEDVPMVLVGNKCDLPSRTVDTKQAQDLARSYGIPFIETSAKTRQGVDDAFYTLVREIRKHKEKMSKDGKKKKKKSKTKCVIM
GDP-loaded wild-type KRAS (WT), sequence (P01116-2 other isoform, or with tags, fused parts or gaps): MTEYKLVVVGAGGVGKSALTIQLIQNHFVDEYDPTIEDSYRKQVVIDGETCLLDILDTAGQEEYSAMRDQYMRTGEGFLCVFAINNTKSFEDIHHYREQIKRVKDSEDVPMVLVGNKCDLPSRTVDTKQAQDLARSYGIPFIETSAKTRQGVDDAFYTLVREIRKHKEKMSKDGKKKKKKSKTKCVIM
GDP-loaded KRAS-G12V, sequence (P01116-2 other isoform, or with tags, fused parts or gaps G12V): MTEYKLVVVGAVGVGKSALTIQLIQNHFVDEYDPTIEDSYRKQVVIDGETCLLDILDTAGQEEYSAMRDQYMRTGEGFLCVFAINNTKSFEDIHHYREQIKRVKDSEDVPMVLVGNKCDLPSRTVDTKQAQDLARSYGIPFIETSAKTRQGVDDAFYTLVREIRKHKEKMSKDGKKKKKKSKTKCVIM
GDP-loaded KRAS-G12C, sequence (P01116-2 other isoform, or with tags, fused parts or gaps G12C): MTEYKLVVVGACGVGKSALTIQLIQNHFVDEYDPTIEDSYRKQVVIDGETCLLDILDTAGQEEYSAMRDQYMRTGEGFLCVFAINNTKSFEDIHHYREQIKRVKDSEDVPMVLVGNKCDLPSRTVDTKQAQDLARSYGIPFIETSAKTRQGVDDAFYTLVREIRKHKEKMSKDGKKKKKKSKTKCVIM

With `C#Cc1c(F)ccc2cc(O)cc(-c3nc4c5c(nc(OC[C@@]67CCCN6[C@H](COC(C(F)(F)F)(C(F)(F)F)C(F)(F)F)CC7)nc5c3F)N3CCCOC[C@@H]3CC4)c12` [Example 22-4], the pIC50 in test [1] was 8.92; on GDP-loaded KRAS-G12C, 8.74; at GDP-loaded KRAS-G12V, 8.80; at GDP-loaded KRAS-G12D it was 8.78. Moreover, the pEC50 in test [2] is 8.50; in test [3] (Homo sapiens), 9.07; in test [4] (Homo sapiens) it was 8.71; in test [5] (Homo sapiens, ASPC1), 8.64.

On to `C#Cc1c(F)ccc2cc(O)cc(-c3nc4c5c(nc(OC[C@@]67CCCN6[C@H](COc6cc(C(F)(F)F)ncn6)CC7)nc5c3F)N3CCCOC[C@@H]3C=C4C)c12` [Example 18-1, 5-ethynyl-6-fluoro-4-((S)-1-fluoro-4-methyl-12-(((3S,7aS)-3-(((6-(trifluoromethyl)pyrimidin-4-yl)oxy)methyl)tetrahydro-1H-pyrrolizin-7a(5H)-yl)methoxy)-5a,6,9,10-tetrahydro-8H-7-oxa-3,10a,11,13-tetraazanaphtho[1,8-ab]heptalen-2-yl)naphthalen-2-ol], for which the pIC50 in test [1] is 8.25; at GDP-loaded KRAS-G12C it was 8.44; on GDP-loaded KRAS-G12V, 8.56; on GDP-loaded KRAS-G12D, 8.49. The pEC50 in test [2] is 8.45; in test [3] (Homo sapiens), 8.49; in test [4] (Homo sapiens), 7.89; in test [5] (Homo sapiens, ASPC1), 7.85.

Turning to `C#Cc1c(F)ccc2cc(O)cc(-c3nc4c5c(nc(OC[C@@]67CCCN6C/C(=C\F)C7)nc5c3F)N3CCCOC[C@@H]3CC4)c12` [Example 6-23], the pIC50 in test [1] is 10.22; on GDP-loaded KRAS-G12C, 10.30; at GDP-loaded KRAS-G12V, 10.30; on GDP-loaded KRAS-G12D it was 10.40. For the same compound, the pEC50 in test [2] was 8.94; in test [3] (Homo sapiens) it was 10.22; in test [4] (Homo sapiens), 9.70; in test [5] (Homo sapiens, ASPC1), 9.36.

On to `C#Cc1c(F)ccc2cc(N)cc(-c3nc4c5c(nc(OC[C@@]67CCCN6[C@H](COc6cc(C(F)(F)F)ncn6)CC7)nc5c3F)N3CCCOC[C@@H]3CC4)c12` [Example 7-4], for which the negative-log IC50 (pIC50) in test [1] was 8.65; on GDP-loaded KRAS-G12C it was 8.99; at GDP-loaded KRAS-G12V, 8.70; on GDP-loaded KRAS-G12D it was 8.35. Moreover, the pEC50 in test [2] was 8.35; in test [3] (Homo sapiens), 8.04; in test [4] (Homo sapiens), 8.05; in test [5] (Homo sapiens, ASPC1), 7.58.

As for `C#Cc1c(F)ccc2cc(O)cc(-c3nc4c5c(nc(OC[C@@]67CCCN6C[C@H](F)C7)nc5c3F)N3CCCCC3CCn3nncc3-4)c12` (mixture of isomers) [Example 11-1, 5-ethynyl-6-fluoro-4-(1-fluoro-14-(((2R,7aS)-2-fluorotetrahydro-1H-pyrrolizin-7a(5H)-yl)methoxy)-8,8a,9,10,11,12-hexahydro-7H-3,5,6,6a,12a,13,15-heptaazabenzo[4,5]cyclopenta[8,9]cyclonona[1,2,3-de]naphthalen-2-yl)naphthalen-2-ol], the pIC50 (in test [1]; at GDP-loaded KRAS-G12C; at GDP-loaded KRAS-G12V; on GDP-loaded KRAS-G12D) was under 6.00 throughout. In addition, the pEC50 in test [2], in test [3], in test [4] and in test [5] (read-out: AsPC1 pERK EC50) was under 6.00 each time.

With `C#Cc1c(F)ccc2cc(O)cc(-c3nc4c5c(nc(OC[C@@]67CCCN6[C@H](COc6nccnc6C(F)C(C)F)CC7)nc5c3F)N3CCCOC[C@@H]3CC4)c12` (some centres unmarked) [Example 6-14], the pIC50 in test [1] was 10.30; on GDP-loaded KRAS-G12C, 10.10; at GDP-loaded KRAS-G12V, 10.05; at GDP-loaded KRAS-G12D it was 10.05. Besides, the pEC50 in test [2] was 8.46; in test [3] (Homo sapiens) it was 9.49; in test [4] (Homo sapiens) it was 8.68; in test [5] (Homo sapiens, ASPC1) it was 8.46.

`C#Cc1c(F)ccc2cc(O)cc(-c3nc4c5c(nc(OCC67CCCN6[C@H](COC(C(F)(F)F)C(F)(F)F)CC7)nc5c3F)N3CCCOCC3CC4)c12` (some centres unmarked) [Example 22-7]: the pIC50 was 7.51 in test [1], 7.46 on GDP-loaded KRAS-G12C, 7.90 at GDP-loaded KRAS-G12V and 7.51 at GDP-loaded KRAS-G12D. The pEC50 in test [2] is 8.01; in test [3] (Homo sapiens) it was 8.17; in test [4] (Homo sapiens) it was 7.43; in test [5] (Homo sapiens, ASPC1) it was 7.26.

For the compound `C#Cc1c(F)ccc2cccc(-c3nc4c5c(nc(OC[C@@]67CCCN6[C@H](COC(=O)N(CC)CC)CC7)nc5c3F)N3CCCOC[C@@H]3CC4)c12` [Example 16-1, ((3S,7aS)-7a-((((S)-2-(8-ethynyl-7-fluoronaphthalen-1-yl)-1-fluoro-4,5,5a,6,9,10-hexahydro-8H-7-oxa-3,10a,11,13-tetraazanaphtho[1,8-ab]heptalen-12-yl)oxy)methyl)hexahydro-1H-pyrrolizin-3-yl)methyl diethylcarbamate], the pIC50 was 7.48 at GDP-loaded KRAS-G12C, 7.51 on GDP-loaded KRAS-G12V and 7.37 at GDP-loaded KRAS-G12D. Also, the pEC50 in test [2] is 6.62; in test [3] (Homo sapiens), 6.64; in test [4] (Homo sapiens) it was 6.26; in test [5] (Homo sapiens, ASPC1), 6.19.

In the case of `C#Cc1c(F)ccc2cc(O)cc(-c3nc4c5c(nc(OC[C@@]67CCCN6[C@H](COc6cc(C(F)(F)F)ncn6)CC7)nc5c3F)N3CCCOC[C@@H]3CC4)c12` [Example 6-12], the pIC50 in test [1] was 9.17; at GDP-loaded KRAS-G12C, 9.04; on GDP-loaded KRAS-G12V, 9.66; on GDP-loaded KRAS-G12D, 9.33. The pEC50 is 8.87 in test [2]; 9.83 in test [3] (Homo sapiens); 9.14 in test [4] (Homo sapiens); 8.82 in test [5] (Homo sapiens, ASPC1).

Regarding `C#Cc1c(F)ccc2cc(O)cc(-c3nc4c5c(nc(OCC67CCCN6[C@H](COCC(F)(F)F)CC7)nc5c3F)N3CCCOCC3CC4)c12` (some centres unmarked) [Example 22-8], the pIC50 in test [1] is 8.79; at GDP-loaded KRAS-G12C, 9.17; at GDP-loaded KRAS-G12V it was 8.86; at GDP-loaded KRAS-G12D, 9.44. The pEC50 in test [2] is 8.67; in test [3] (Homo sapiens), 8.25; in test [4] (Homo sapiens), 8.22; in test [5] (Homo sapiens, ASPC1), 7.84.

With `C#Cc1c(F)ccc2cc(N)cc(-c3nc4c5c(nc(OC[C@@]67CCCN6[C@H](COc6cc(C(F)(F)F)cnn6)CC7)nc5c3F)N3CCCOC[C@@H]3CC4)c12` [Example 7-5], the pIC50 was 8.74 in test [1], 9.26 at GDP-loaded KRAS-G12C, 9.19 at GDP-loaded KRAS-G12V and 8.75 on GDP-loaded KRAS-G12D. Besides, the negative-log EC50 (pEC50) in test [2] was 8.85; in test [3] (Homo sapiens), 8.87; in test [4] (Homo sapiens) it was 8.46; in test [5] (Homo sapiens, ASPC1), 7.67.

Consider `C#Cc1c(F)ccc2cc(O)cc(C3=C(F)C4N=C(OC[C@@]56CCCN5C[C@H](F)C6)N=C5C4C(=C3F)C(C)=C[C@H]3COCCCN53)c12` (some centres unmarked) [Example 6-28], for which the pIC50 in test [1] is 8.46; on GDP-loaded KRAS-G12C it was 8.60; at GDP-loaded KRAS-G12V, 8.57; on GDP-loaded KRAS-G12D, 8.55. For the same compound, the pEC50 in test [2] was 7.93; in test [3] (Homo sapiens), 8.63; in test [4] (Homo sapiens), 8.10; in test [5] (Homo sapiens, ASPC1) it was 7.77.

For `C#Cc1c(F)ccc2cccc(-c3nc4c5c(nc(OCC6(CN7CCCCC7)CC6)nc5c3F)N3CCCOC[C@@H]3CC4)c12` [Example 15-2], the pIC50 on GDP-loaded KRAS-G12C was 7.87; on GDP-loaded KRAS-G12V it was 7.77; at GDP-loaded KRAS-G12D it was 7.65. Also, the pEC50 in test [2] was 7.07; in test [3] (Homo sapiens) it was 6.94; in test [4] (Homo sapiens), 6.56; in test [5] (Homo sapiens, ASPC1), 6.67.

On to `Cc1cc(N)nc(-c2c(Cl)c3c4c(nc(OC[C@@]56CCCN5C[C@H](F)C6)nc4c2F)N2CCCOCC2CC3)c1C(F)(F)F` (mixture of isomers) [Example 21-1, 6-(12-chloro-10-fluoro-8-(((2R,7aS)-2-fluorotetrahydro-1H-pyrrolizin-7a(5H)-yl)methoxy)-1,4,5,13,14,14a-hexahydro-3H-[1,4]oxazepino[4′,3′:1,7]azepino[2,3,4-de]quinazolin-11-yl)-4-methyl-5-(trifluoromethyl)pyridin-2-amine], for which the pIC50 is 5.28 in test [1], 5.84 on GDP-loaded KRAS-G12C, 5.30 on GDP-loaded KRAS-G12V and 4.76 on GDP-loaded KRAS-G12D. Also, the pEC50 in test [2] was under 6.02; in test [3] it was 5.33; in test [4] it was 5.14; in test [5] (read-out: AsPC1 pERK EC50), 4.57.
